# Experimental data as given in PubChem BioAssay AID2060346 (Molecular Pharmacology Branch, DTP, NCI, 2025).
# “And” between values parts separate entries of the source, which are not always exact repeats. Equal entries are not always repeated.
# Test system: CN0375-F725-PDC multi-cell spheroids, viability
# Assay: Anticancer human tumor CN0375-F725-PDC patient-derived colon carcinoma cell line growth inhibition [TAK]
# Settings: for viability, T/C: stronger effect = lower value
# Outline: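 Drug combinations, each paired with TAK-243 or ipatasertib, were tested on multi-cell spheroids of 60% malignant cells, 25% HUVEC and 15% hMSC. Top concentrations were at or near the clinical Cmax (10 microM if undetermined), decreasing by half-log; viability is given as % test/control.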
# 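Note: spheroids exposed to drugs for seven days.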
# 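Throughout, for viability, T/C: 100% = DMSO vehicle control wells.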
compound,measurement,setting,value
Cn1cnc2c(F)c(Nc3ccc(Br)cc3Cl)c(C(=O)NOCCO)cc21 + CC(C)NCC(C(=O)N1CCN(c2ncnc3c2C(C)CC3O)CC1)c1ccc(Cl)cc1,IC50,"curve of first compound, second compound 0.3 µM",260 nM
same,IC50,"curve of first compound, second compound 0.949 µM",222 nM
same,IC50,"curve of first compound, second compound 3 µM",161 nM
same,IC50,"curve of first compound, second compound 9.49 µM",178 nM
same,IC50,"curve of first compound, second compound 30 µM",71.2 nM
same,"viability, T/C","second compound 0.3 µM, first compound 0.00949 µM",91.4%
same,"viability, T/C","second compound 0.3 µM, first compound 0.03 µM",75.3%
same,"viability, T/C","second compound 0.3 µM, first compound 0.0949 µM",58.8%
same,"viability, T/C","second compound 0.3 µM, first compound 0.3 µM",50%
same,"viability, T/C","second compound 0.3 µM, first compound 0.949 µM",38.6%
same,"viability, T/C","second compound 0.3 µM, first compound 3 µM",30.6%
same,"viability, T/C","second compound 0.949 µM, first compound 0.00949 µM",83.5%
same,"viability, T/C","second compound 0.949 µM, first compound 0.03 µM",78.6%
same,"viability, T/C","second compound 0.949 µM, first compound 0.0949 µM",57.6%
same,"viability, T/C","second compound 0.949 µM, first compound 0.3 µM",48.3%
same,"viability, T/C","second compound 0.949 µM, first compound 0.949 µM",36%
same,"viability, T/C","second compound 0.949 µM, first compound 3 µM",31.1%
same,"viability, T/C","second compound 3 µM, first compound 0.00949 µM",79.6%
same,"viability, T/C","second compound 3 µM, first compound 0.03 µM",72%
same,"viability, T/C","second compound 3 µM, first compound 0.0949 µM",56.9%
same,"viability, T/C","second compound 3 µM, first compound 0.3 µM",41.4%
same,"viability, T/C","second compound 3 µM, first compound 0.949 µM",34.2%
same,"viability, T/C","second compound 3 µM, first compound 3 µM",29.3%
same,"viability, T/C","second compound 9.49 µM, first compound 0.00949 µM",77.8%
same,"viability, T/C","second compound 9.49 µM, first compound 0.03 µM",69.4%
same,"viability, T/C","second compound 9.49 µM, first compound 0.0949 µM",58.2%
same,"viability, T/C","second compound 9.49 µM, first compound 0.3 µM",42.7%
same,"viability, T/C","second compound 9.49 µM, first compound 0.949 µM",32.7%
same,"viability, T/C","second compound 9.49 µM, first compound 3 µM",23.2%
same,"viability, T/C","second compound 30 µM, first compound 0.00949 µM",66%
same,"viability, T/C","second compound 30 µM, first compound 0.03 µM",64.2%
same,"viability, T/C","second compound 30 µM, first compound 0.0949 µM",43.5%
same,"viability, T/C","second compound 30 µM, first compound 0.3 µM",31.6%
same,"viability, T/C","second compound 30 µM, first compound 0.949 µM",22.1%
same,"viability, T/C","second compound 30 µM, first compound 3 µM",16.1%
CC(C)CC(NC(=O)CNC(=O)c1cc(Cl)ccc1Cl)B1OC(=O)CC(CC(=O)O)(C(=O)O)O1 (configuration not stated),"viability, T/C",compound 0.000316 µM,113% and 106%
same,"viability, T/C",compound 0.001 µM,112% and 104%
same,"viability, T/C",compound 0.00316 µM,103% and 102%
same,"viability, T/C",compound 0.01 µM,111% and 109%
same,"viability, T/C",compound 0.0316 µM,78.3% and 75.7%
same,"viability, T/C",compound 0.1 µM,23.4% and 22.6%
same,IC50,curve of compound,57.2 nM and 55.2 nM
